Results published in patent US20180244611A1, “Modulators of the Cystic Fibrosis Transmembrane Conductance Regulator Protein and Methods of Use” (AbbVie S.à.r.l., priority 2017, published 2018).

Legend:
F508delCFTR [1] = target: T1, F508delCFTR (Homo sapiens, UniProt P13569, DEL508-508); test: Cell Surface Expression-Horse Radish Peroxidase (CSE-HRP) assay, test compound with co-corrector; type: cell-based; details: with 2 μM co-corrector; for Maximum % activity (with co-corrector): maximum at any tested concentration, normalized to positive control;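 for Maximum % activity (with co-corrector): percent of 2 µM positive control corrector over DMSO; co-corrector is that same compound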
T1 construct: expressed in transfected cells; host or cells: CFBE41o- human lung-derived epithelial cells (CFBE41o-F508delCFTR-HRP), doxycycline-inducible
T1 sequence (P13569 with tags, fused parts or gaps DEL508-508): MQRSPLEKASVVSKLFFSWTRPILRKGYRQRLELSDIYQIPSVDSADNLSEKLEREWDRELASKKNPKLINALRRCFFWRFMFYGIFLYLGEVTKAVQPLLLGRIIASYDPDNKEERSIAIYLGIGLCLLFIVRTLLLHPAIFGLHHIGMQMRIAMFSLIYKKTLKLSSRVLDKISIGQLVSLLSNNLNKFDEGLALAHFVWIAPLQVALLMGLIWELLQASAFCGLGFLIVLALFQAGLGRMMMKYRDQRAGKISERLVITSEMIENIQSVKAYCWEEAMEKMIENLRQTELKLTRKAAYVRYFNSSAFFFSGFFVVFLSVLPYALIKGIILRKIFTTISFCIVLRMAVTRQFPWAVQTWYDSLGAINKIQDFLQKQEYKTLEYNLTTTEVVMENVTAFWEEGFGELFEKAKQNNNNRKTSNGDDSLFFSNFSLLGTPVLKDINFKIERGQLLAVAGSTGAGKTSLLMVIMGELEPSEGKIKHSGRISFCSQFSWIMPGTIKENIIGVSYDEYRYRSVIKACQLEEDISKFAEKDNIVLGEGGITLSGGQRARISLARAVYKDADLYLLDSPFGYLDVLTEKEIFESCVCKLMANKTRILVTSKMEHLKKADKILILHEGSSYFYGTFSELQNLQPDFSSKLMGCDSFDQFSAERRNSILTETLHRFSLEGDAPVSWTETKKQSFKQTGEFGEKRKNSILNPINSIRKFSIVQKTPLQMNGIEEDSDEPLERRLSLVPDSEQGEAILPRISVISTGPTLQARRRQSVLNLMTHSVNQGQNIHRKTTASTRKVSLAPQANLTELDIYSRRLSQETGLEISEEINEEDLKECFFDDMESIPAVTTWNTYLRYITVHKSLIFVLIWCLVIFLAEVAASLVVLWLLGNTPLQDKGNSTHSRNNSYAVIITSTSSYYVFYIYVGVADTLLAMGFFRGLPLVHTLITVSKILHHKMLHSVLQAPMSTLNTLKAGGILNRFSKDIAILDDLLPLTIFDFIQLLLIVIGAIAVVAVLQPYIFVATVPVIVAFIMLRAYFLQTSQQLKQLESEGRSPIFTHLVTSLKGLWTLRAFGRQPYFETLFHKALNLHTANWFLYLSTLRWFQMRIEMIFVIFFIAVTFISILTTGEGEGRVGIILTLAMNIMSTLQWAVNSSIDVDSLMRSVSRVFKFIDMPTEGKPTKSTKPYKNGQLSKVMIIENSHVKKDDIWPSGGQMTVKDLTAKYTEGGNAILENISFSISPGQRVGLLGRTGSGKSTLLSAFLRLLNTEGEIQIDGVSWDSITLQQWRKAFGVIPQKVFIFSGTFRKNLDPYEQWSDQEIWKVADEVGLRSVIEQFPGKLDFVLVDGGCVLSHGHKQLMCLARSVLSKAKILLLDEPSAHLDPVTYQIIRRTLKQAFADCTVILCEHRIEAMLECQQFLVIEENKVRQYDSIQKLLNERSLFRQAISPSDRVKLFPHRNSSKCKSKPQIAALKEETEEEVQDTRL
Summary of the method: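 Surface-expression read-out: luminol luminescence from an HRP tag in the fourth exofacial loop of F508delCFTR, in doxycycline-induced (0.5 μg/mL, 72 h) CFBE41o- cells. Compound plus 2 μM co-corrector added for 18-24 h at 33° C., 8-point 3-fold series up to 20 μM. EC50 from a sigmoidal fit with variable Hill slope, normalised to positive control, triplicate plates.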

F508delCFTR [2] = target: T1, F508delCFTR; test: Cell Surface Expression-Horse Radish Peroxidase (CSE-HRP) assay, test compound without co-corrector; type: cell-based; details: for Emax: maximum at any tested concentration, normalized to positive control, without co-corrector; for EC50: test compound without co-corrector;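 for Emax: percent of on-plate 2 µM positive control corrector response over DMSO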
Summary of the method: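 Compound without co-corrector was tested at eight 3-fold concentrations, top 20 μM, for 18-24 h at 33° C on doxycycline-induced (0.5 μg/mL, 72 h) CFBE41o- F508delCFTR-HRP cells. After DPBS washes, luminol luminescence gave % activity relative to on-plate positive control minus DMSO; EC50 came from triplicate-plate sigmoidal fitting.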

Row | SMILES | Maximum % activity (with co-corrector) (F508delCFTR [1]) | EC50 (F508delCFTR [1]) [µM] | Emax (F508delCFTR [2]) [%] | EC50 (F508delCFTR [2]) [µM]
1 | Cc1ccccc1S(=O)(=O)NC(=O)C1CCCc2cccc(Cl)c21 (stereo not drawn) [II-10] | ++ (≥150 and <350) | 3 to 10 | 50 to 150 | 3 to 10
2 | Cc1ccccc1S(=O)(=O)NC(=O)C1CCc2ccccc21 (stereo not drawn) [II-11] | + (<150) | 3 to 10 | < 50 | ≥ 10
3 | Cc1ccccc1S(=O)(=O)NC(=O)C1CCCc2cc(F)ccc21 (stereo not drawn) [II-12] | ++ (≥150 and <350) | 3 to 10 | < 50 | 3 to 10
4 | COc1cccc2c1CCC[C@H]2C(=O)NS(=O)(=O)c1ccccc1C [II-13] | +++ (≥350) | 3 to 10 | 50 to 150 | 3 to 10
5 | Cc1ccccc1S(=O)(=O)NC(=O)[C@H]1CCCc2ccccc21 [II-14] | ++ (≥150 and <350) | 3 to 10 | < 50 | 3 to 10
6 | COc1cc2c(cc1OC)C(C(=O)NS(=O)(=O)c1ccccc1C)CCC2 (stereo not drawn) [II-15] | + (<150) | 3 to 10 | < 50 | ≥ 10
7 | COc1cccc2c1CC(C(=O)NS(=O)(=O)c1ccccc1C)C2 (stereo not drawn) [II-16] | ++ (≥150 and <350) | 3 to 10 | < 50 | 3 to 10
8 | Cc1ccccc1S(=O)(=O)NC(=O)[C@@H]1CCCc2ccccc21 [II-17] | ++ (≥150 and <350) | 3 to 10 | < 50 | 3 to 10
9 | COc1ccc2c(c1)[C@@](C)(C(=O)NS(=O)(=O)c1ccccc1C)CC2 [II-18] | ++ (≥150 and <350) | 3 to 10 | < 50 | 3 to 10
10 | Cc1ccccc1S(=O)(=O)NC(=O)C1(C)CCc2cccc(Cl)c21 (stereo not drawn) [II-19] | ++ (≥150 and <350) | 3 to 10 | 50 to 150 | 3 to 10
11 | Cc1ccccc1S(=O)(=O)NC(=O)C1(C)CCc2c1ccc(F)c2F (stereo not drawn) [II-20] | ++ (≥150 and <350) | 3 to 10 | < 50 | 3 to 10
12 | Cc1ccccc1S(=O)(=O)NC(=O)C1(C)CCc2ccccc21 (stereo not drawn) [II-21] | ++ (≥150 and <350) | 3 to 10 | < 50 | 3 to 10
13 | Cc1ccc2c(c1)CCC2(C)C(=O)NS(=O)(=O)c1ccccc1C (stereo not drawn) [II-22] | ++ (≥150 and <350) | 3 to 10 | 50 to 150 | 3 to 10
14 | CCc1ccccc1S(=O)(=O)NC(=O)C1CCc2c(OC)cccc21 (stereo not drawn) [II-24] | ++ (≥150 and <350) | 3 to 10 | < 50 | 3 to 10
15 | CCc1ccccc1S(=O)(=O)NC(=O)C1CCc2c(Cl)cccc21 (stereo not drawn) [II-25] | ++ (≥150 and <350) | 3 to 10 | 50 to 150 | 3 to 10
16 | O=C(NS(=O)(=O)c1cccc(Cl)c1)C1CCc2c(Cl)cccc21 (stereo not drawn) [II-26] | ++ (≥150 and <350) | 3 to 10 | < 50 | ≥ 10
17 | O=C(NS(=O)(=O)c1ccc(Cl)cc1)C1CCc2c(Cl)cccc21 (stereo not drawn) [II-27] | ++ (≥150 and <350) | 3 to 10 | < 50 | ≥ 10
18 | O=C(NS(=O)(=O)c1ccccc1F)C1CCc2c(Cl)cccc21 (stereo not drawn) [II-28] | ++ (≥150 and <350) | 3 to 10 | < 50 | 3 to 10
19 | COc1cccc2c1CCC2C(=O)NS(=O)(=O)c1ccccc1Cl (stereo not drawn) [II-30] | ++ (≥150 and <350) | 3 to 10 | < 50 | 3 to 10
20 | COc1cccc2c1CCC2C(=O)NS(=O)(=O)c1ccccc1[N+](=O)[O-] (stereo not drawn) [II-31] | ++ (≥150 and <350) | 3 to 10 | < 50 | 3 to 10
21 | CCC1(C(=O)NS(=O)(=O)c2ccccc2C)CCc2c(Cl)cccc21 (stereo not drawn) [II-32] | ++ (≥150 and <350) | < 3 | < 50 | < 3
22 | Cc1ccccc1S(=O)(=O)NC(=O)C1CCc2c(Br)cccc21 (stereo not drawn) [II-33] | +++ (≥350) | 3 to 10 | 50 to 150 | 3 to 10
23 | Cc1ccccc1S(=O)(=O)NC(=O)C1CCc2c(C3=CCOCC3)cccc21 (stereo not drawn) [II-34] | ++ (≥150 and <350) | 3 to 10 | < 50 | 3 to 10

Row | SMILES | Maximum % activity (with co-corrector) (F508delCFTR [1]) | EC50 (F508delCFTR [1]) [µM] | Emax (F508delCFTR [2]) [%] | EC50 (F508delCFTR [2]) [µM]
24 | Cc1ccccc1S(=O)(=O)NC(=O)C1CCc2c(C3CCC3)cccc21 (stereo not drawn) [II-35] | ++ (≥150 and <350) | 3 to 10 | 50 to 150 | 3 to 10
25 | COc1cccc2c1CCC2C(=O)NS(=O)(=O)c1ccccc1C(F)(F)F (stereo not drawn) [II-37] | ++ (≥150 and <350) | 3 to 10 | < 50 | 3 to 10
26 | COc1cccc2c1CCC2C(=O)NS(=O)(=O)c1ccccc1F (stereo not drawn) [II-38] | ++ (≥150 and <350) | 3 to 10 | < 50 | ≥ 10
27 | COc1cccc2c1CCC2C(=O)NS(=O)(=O)c1ccccc1Br (stereo not drawn) [II-39] | ++ (≥150 and <350) | 3 to 10 | < 50 | 3 to 10
28 | Cc1ccccc1S(=O)(=O)NC(=O)C1CCc2c(OC(C)C)cccc21 (stereo not drawn) [II-40] | ++ (≥150 and <350) | 3 to 10 | 50 to 150 | 3 to 10
29 | COc1ccc(Br)c2c1CCC2C(=O)NS(=O)(=O)c1ccccc1C (stereo not drawn) [II-41] | +++ (≥350) | 3 to 10 | 50 to 150 | 3 to 10
30 | COc1cc(-c2cccc3c2CCC3C(=O)NS(=O)(=O)c2ccccc2C)ccn1 (stereo not drawn) [II-42] | ++ (≥150 and <350) | 3 to 10 | 50 to 150 | 3 to 10
31 | COc1cccc2c1CCCC2C(=O)NS(=O)(=O)c1cccc2cccnc12 (stereo not drawn) [II-43] | ++ (≥150 and <350) | 3 to 10 | 50 to 150 | 3 to 10
32 | COc1ccc2c(c1)CC[C@@]2(C)C(=O)NS(=O)(=O)c1cccc2ccccc12 [II-44] | +++ (≥350) | 3 to 10 | 50 to 150 | 3 to 10
33 | COc1ccc2c(c1)CC[C@]2(C)C(=O)NS(=O)(=O)c1cccc2ccccc12 [II-45] | +++ (≥350) | 3 to 10 | ≥ 150 | 3 to 10
34 | COc1cccc2c1CC[C@]2(C)C(=O)NS(=O)(=O)c1cccc2ccccc12 [II-46] | +++ (≥350) | 3 to 10 | 50 to 150 | 3 to 10
35 | COc1cccc2c1CC(C(=O)NS(=O)(=O)c1cccc3ccccc13)C2 (stereo not drawn) [II-48] | +++ (≥350) | 3 to 10 | 50 to 150 | 3 to 10
36 | CC1(C(=O)NS(=O)(=O)c2cccc3ccccc23)CCc2ccc(OC(F)(F)F)cc21 (stereo not drawn) [II-49] | +++ (≥350) | < 3 | ≥ 150 | 3 to 10
37 | O=C(NS(=O)(=O)c1cccc2ccccc12)C1CCCc2c(O)ccc(Br)c21 (stereo not drawn) [II-50] | ++ (≥150 and <350) | 3 to 10 | < 50 | 3 to 10
38 | COc1ccc2c(c1OC)CCCC2C(=O)NS(=O)(=O)c1cccc2ccccc12 (stereo not drawn) [II-51] | +++ (≥350) | 3 to 10 | 50 to 150 | 3 to 10
39 | O=C(NS(=O)(=O)c1cccc2ccccc12)C1CCCc2c1ccc1c2OCCO1 (stereo not drawn) [II-52] | +++ (≥350) | 3 to 10 | 50 to 150 | 3 to 10
40 | COc1cc2c(cc1OC)C(C(=O)NS(=O)(=O)c1cccc3ccccc13)CCC2 (stereo not drawn) [II-53] | +++ (≥350) | 3 to 10 | 50 to 150 | 3 to 10
41 | CCC1(C(=O)NS(=O)(=O)c2ccccc2Cl)CCc2c(Cl)cccc21 (stereo not drawn) [II-54] | ++ (≥150 and <350) | < 3 | < 50 | < 3
42 | CCC1(C(=O)NS(=O)(=O)c2ccccc2OC)CCc2c(Cl)cccc21 (stereo not drawn) [II-55] | + (<150) | ≥ 10 | < 50 | ≥ 10
43 | CCC1(C(=O)NS(=O)(=O)c2cc(C)ccc2C(C)C)CCc2c(Cl)cccc21 (stereo not drawn) [II-56] | ++ (≥150 and <350) | < 3 | < 50 | < 3
44 | CCC1(C(=O)NS(=O)(=O)c2cccc(Cl)c2COC)CCc2c(Cl)cccc21 (stereo not drawn) [II-57] | ++ (≥150 and <350) | < 3 | < 50 | < 3
45 | CCC1(C(=O)NS(=O)(=O)c2ccccc2F)CCc2c(Cl)cccc21 (stereo not drawn) [II-58] | ++ (≥150 and <350) | < 3 | < 50 | < 3
